Laboratory results from patent publication US6380182B1, “Methods and compositions controlling biofouling using sulfamic acids” (priority 1997, dated 2002).
Several values for one entry are separate records, joined by “and”; a condition that tells them apart may be missing. Equal entries are not always repeated.

What was measured:
Assay type in all cases: cell-based
[1] = system: Bacteria of the genera Bacillus, Flavobacterium, and Pseudomonas; assay: Bioreactor bacterial adhesion test, quantitative inhibition of bacterial adhesion (IBA) by crystal violet absorbance at 586 nm; conditions: 100 ppm, acetone solvent, 168 h incubation at 26-28 C, 50% or greater considered effective
Experimental: The test method, construction of bioreactors, bacterial growth medium, preparation of bacterial inocula, and biofilm production/chemical testing is the same as outlined in EXAMPLE 3. After 168 h (1 week) of incubation at 26-28 C, the slides were removed from the bioreactors and were positioned vertically to […] using a staining procedure. The slides were briefly flamed in order to fix the cells to the surface, and then transferred for one minute to a container of Gram Crystal Violet (DIFCO Laboratories, Detroit, Mich.). The slides were gently rinsed under running tap water, carefully blotted, and again allowed to air dry overnight The degree of bacterial adhesion was then determined by a quantitative method of evaluation. The pair of glass slides and the pair of stainless steel slides corresponding to each treatment were placed each in Petri plate with 10 mL ethanol (technical) to remove the crystal violet staining the cells attached to the slides. A 1 mL aliquot of the crystal violet ethanol solution obtained in each Petri plate was transferred each to a test tube with 9 mL of deionized sterile water ( 1/10 dilution). The blank for calibration of the optical instrument used for the evaluation was a solution of 1 mL of ethanol in 9 mL of deionized sterile water. The absorbance (ABS) of each solution was determined using a spectrophotometer (Spectronic 21, Bausch and Lomb) at a wavelength of 586 nm. The inhibition of bacterial adhesion (IBA) was calculated: IBA=100 (ABS control−ABS treatment)\ABS control 90 or >% IBA=essentially no bacterial adhesion 89-70% IBA=scant 69-50% IBA=slight 30% IBA=moderate 29-<29% IBA=moderate Compounds which receive 50% IBA or greater were considered effective to prevent the adhesion of bacteria to the submerged slides.

E. Aerogenes = assay: Minimum inhibitory concentration, 18 hour Basal Salts test; conditions: for MIC pH8: pH 8; for MIC pH6: pH 6
[2] = system: Bacteria of the genera Bacillus, Flavobacterium, and Pseudomonas; assay: Bioreactor bacterial adhesion test, visual biofilm scoring of crystal violet stained slides; design: key: 0=essentially none; 1=scant; 2=slight; 3=moderate; 4=heavy; conditions: Glass slides; 100 ppm; acetone solvent; 3 days; average of four replicate slides; 0-2 considered effective
From the text: Test Method: The following method effectively defines the ability of a chemical compound to inhibit bacterial adhesion, or attack the formation of existing attached microorganisms, on various types of surfaces. As an overview, bioreactors were constructed in which approximately 1 in.×3 in. slides (glass or stainless steel) were fixed to the edge of the bioreactor. The lower ends (approx. 2 in.) of the slides dipped into a bacterial growth medium (pH 7) within the bioreactor which contained a known concentration of the test chemical. Following inoculation with known bacterial species, the test solutions were stirred continuously for 3 days. Unless otherwise indicated in the results below, the medium within the bioreactor was turbid by the end of three days. […] A staining procedure was then used on the slides in order to determine the amount of bacteria attached to the surfaces of the slides.
Construction of Bioreactors: The bioreactors comprised a 400 ml glass beaker over which a lid (cover from a standard 9 cm diameter glass petri dish) was placed. With the lid removed, slides of the material of choice were taped at one end with masking tape and suspended inside the bioreactor from the top edge of the beaker. This allows the slides to be submerged within the test medium. Typically, four slides (replicates) were uniformly spaced around the bioreactor. The score presented below are the average of the four replicates. A magnetic stirring bar was placed in the bottom of the unit, the lid positioned, and the bioreactor autoclaved. Two different types of material were used as slides, stainless steel as a metal and glass as a hydrophillic surface.
Bacterial Growth Medium: The liquid medium utilized in the bioreactors was described previously by Delaquis, et al., “Detachment Of Pseudomonas fluorescens From Biofilms On Glass Surfaces In Response To Nutrient Stress”, Microbial Ecology 18:199-210, 1989. The composition of the medium was:
The medium was autoclaved and then allowed to cool. If a sediment formed in the autoclaved medium, the medium was resuspended by shaking before use.
Preparation of Bacterial Inocula: Bacteria of the genera Bacillus, Flavobacterium, and Pseudomonas were isolated from a paper mill slime deposit and maintained in continuous culture. The test organisms were separately streaked onto plate count agar and incubated at 30° C. for 24 hours. With a sterile cotton swab, portions of the colonies were removed and suspended in sterile water. […]
Biofilm Production/Chemical Testing: To four separate bioreactors was added 200 ml of the sterile medium prepared above. Chemicals to be evaluated as biodispersants were first prepared as a stock solution (40 mg/2 ml) using either water or a 9:1 acetone: methanol mixture (ac/MeOH) as a solvent. […]

Compound | Score (% IBA) 168 h Incub. ([1]; Glass slides) | Score (% IBA) 168 h Incub. ([1]; SS (stainless steel) slides) | MIC pH8 (E. Aerogenes) | Score (biofilm score) [2] | MIC pH6 (E. Aerogenes)
CCCCNS(=O)(=O)O [a, butyl sulfamic acid] | 0 % IBA | 66 % IBA | >500 | – | –
CCCCCNS(=O)(=O)O [b, amyl sulfamic acid] | 65 % IBA | 14 % IBA | >500 | – | –
CCCCCCCCNS(=O)(=O)O [c, octyl sulfamic acid] | 41 % IBA | 54 % IBA | >100 | – | –
CCCCCCCCN(CCCCCCCC)S(=O)(=O)O [d, dioctyl sulfamic acid] | – | – | >100 | 3 | –
CCCCCCCCCCCCNS(=O)(=O)O [e, dodecyl sulfamic acid] | 82 % IBA and 72 % IBA | 78 % IBA and 70 % IBA | – | 3.8 | –
CCCCCCCCCCCCN(CCCCCCCCCCCC)S(=O)(=O)O [f, didodecyl sulfamic acid] | 27 % IBA | 15 % IBA | – | 2.00 | –
CCCCCCCCCCCCCCCCCCNS(=O)(=O)O [g, octadecyl sulfamic acid] | – | – | >500 | – | –
O=S(=O)(O)N(C1CCCCC1)C1CCCCC1 [h, dicyclohexyl sulfamic acid] | 44 % IBA | 57 % IBA | >100 | – | >500
O=S(=O)(O)NN1CCOCC1 [i, morpholino sulfamic acid] | 47 % IBA | 39 % IBA | >100 | – | >500
piperidinyl sulfamic acid [j] | 40 % IBA | 68 % IBA | >100 | 2.5 | >100
